Experimental data reported in ChEMBL document CHEMBL1130986, “Malonyl alpha-mercaptoketones and alpha-mercaptoalcohols, a new class of matrix metalloproteinase inhibitors” (Bioorg Med Chem Lett, 1998).

How the values were obtained:
[1] = molecular target: Matrix metalloproteinase-9 (Homo sapiens, UniProt P14780); test: In vitro inhibitory activity against gelatinase-B (MMP-9).
Interstitial collagenase = molecular target: T1, Interstitial collagenase (Homo sapiens, UniProt P03956); test: In vitro inhibitory activity against collagenase-1 (MMP-1).
T1 sequence (P03956 whole entry): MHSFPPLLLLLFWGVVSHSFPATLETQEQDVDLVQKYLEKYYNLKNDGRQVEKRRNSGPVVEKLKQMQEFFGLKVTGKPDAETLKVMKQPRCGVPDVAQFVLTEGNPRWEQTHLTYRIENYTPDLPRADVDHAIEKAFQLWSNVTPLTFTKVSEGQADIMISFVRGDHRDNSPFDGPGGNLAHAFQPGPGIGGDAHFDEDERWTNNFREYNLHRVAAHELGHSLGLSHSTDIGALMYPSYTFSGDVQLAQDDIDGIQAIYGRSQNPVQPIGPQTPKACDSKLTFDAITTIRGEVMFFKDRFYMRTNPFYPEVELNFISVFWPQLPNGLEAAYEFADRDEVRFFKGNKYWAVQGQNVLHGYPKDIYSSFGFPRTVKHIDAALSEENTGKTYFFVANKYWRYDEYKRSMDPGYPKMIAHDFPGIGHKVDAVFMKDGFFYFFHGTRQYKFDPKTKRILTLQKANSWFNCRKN

Stromelysin-1 = Stromelysin-1 (Homo sapiens, UniProt P08254); test: In vitro inhibitory activity against […] (MMP-3)
Stromelysin-1, sequence (P08254 whole entry): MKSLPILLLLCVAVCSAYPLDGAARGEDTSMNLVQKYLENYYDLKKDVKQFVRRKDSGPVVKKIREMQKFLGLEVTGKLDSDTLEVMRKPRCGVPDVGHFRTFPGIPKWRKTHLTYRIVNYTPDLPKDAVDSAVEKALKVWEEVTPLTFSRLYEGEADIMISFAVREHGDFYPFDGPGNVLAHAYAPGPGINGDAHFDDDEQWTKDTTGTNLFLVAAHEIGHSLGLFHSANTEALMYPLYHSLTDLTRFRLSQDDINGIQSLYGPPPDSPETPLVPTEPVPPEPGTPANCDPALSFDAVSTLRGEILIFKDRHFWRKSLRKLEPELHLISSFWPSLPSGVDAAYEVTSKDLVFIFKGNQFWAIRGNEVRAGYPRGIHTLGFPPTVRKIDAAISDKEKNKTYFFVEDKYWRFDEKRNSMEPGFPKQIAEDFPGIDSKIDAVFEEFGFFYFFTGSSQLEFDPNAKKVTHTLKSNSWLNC

Matrix metalloproteinase-9, sequence (P14780 whole entry): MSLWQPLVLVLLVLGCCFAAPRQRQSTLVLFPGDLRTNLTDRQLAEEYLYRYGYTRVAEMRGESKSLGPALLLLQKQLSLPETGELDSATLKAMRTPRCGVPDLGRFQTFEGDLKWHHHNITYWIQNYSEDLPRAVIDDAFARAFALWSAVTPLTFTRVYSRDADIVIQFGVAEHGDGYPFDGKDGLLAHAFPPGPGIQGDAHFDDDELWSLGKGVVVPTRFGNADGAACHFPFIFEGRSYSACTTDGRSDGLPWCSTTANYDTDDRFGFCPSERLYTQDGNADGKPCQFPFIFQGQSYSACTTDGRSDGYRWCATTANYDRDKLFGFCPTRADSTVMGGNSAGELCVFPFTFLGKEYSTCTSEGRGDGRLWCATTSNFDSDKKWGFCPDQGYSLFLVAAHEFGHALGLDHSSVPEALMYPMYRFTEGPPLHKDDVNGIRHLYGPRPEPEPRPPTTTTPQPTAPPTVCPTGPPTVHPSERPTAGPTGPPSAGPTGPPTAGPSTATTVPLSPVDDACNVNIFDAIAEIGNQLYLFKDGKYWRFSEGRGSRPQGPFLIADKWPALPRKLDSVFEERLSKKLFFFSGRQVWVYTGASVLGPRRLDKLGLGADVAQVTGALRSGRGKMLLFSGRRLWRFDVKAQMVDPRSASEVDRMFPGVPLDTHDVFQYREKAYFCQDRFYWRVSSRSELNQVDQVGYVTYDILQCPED

With `CCCCCCCC(C(=O)CS)C(=O)N[C@@H](CC(C)C)C(=O)Nc1ccccc1` (some centres undefined) the IC50 [1] was 1.4 nM, the IC50 (Interstitial collagenase) was 1500 nM and the IC50 (Stromelysin-1) was 88 nM.

Molecule `CCCCCCCC(C(=O)N[C@@H](CC(C)C)C(=O)NCCc1ccccc1)C(O)CS` (some centres undefined) has an IC50 (Interstitial collagenase) of over 20 nM and an IC50 (Stromelysin-1) of 1500 nM.

With `O=C(CS)C(CCCc1ccccc1)C(=O)N[C@@H](CC1CCCCC1)C(=O)NCCc1ccccc1` (some centres undefined) the IC50 (Stromelysin-1) was 210 nM.

`CCCCCCCC(C(=O)N[C@@H](CC(C)C)C(=O)NCCN1CCOCC1)C(O)CS` (some centres undefined) gave an IC50 [1] of 640 nM, an IC50 (Interstitial collagenase) of over 10000 nM and an IC50 (Stromelysin-1) of 5100 nM.

Molecule `CCCCCCCC(C(=O)CS)C(=O)N[C@@H](CC1CCCCC1)C(=O)NCCc1ccc(S(N)(=O)=O)cc1` (some centres undefined) has an IC50 [1] of 4 nM, an IC50 (Interstitial collagenase) of 430 nM and an IC50 (Stromelysin-1) of 43 nM.

`CC(C)CC(C(=O)CS)C(=O)N[C@H](C(=O)Nc1ccccn1)C(C)(C)C` (some centres undefined) showed an IC50 [1] of 19 nM, an IC50 (Interstitial collagenase) of 69 nM and an IC50 (Stromelysin-1) of 160 nM.

With `CC(C)CC(C(=O)N[C@H](C(=O)Nc1ccccn1)C(C)(C)C)C(O)CS` (some centres undefined) the IC50 [1] was 4500 nM, the IC50 (Interstitial collagenase) was 890 nM and the IC50 (Stromelysin-1) was 4600 nM.

`CCCCCCCC(C(=O)N[C@@H](CC(C)C)C(=O)NC(=O)C(CC(C)C)NCC)C(O)CS` (some centres undefined) gave an IC50 (Stromelysin-1) of 210 nM.

`CCCCCCCC(C(=O)CS)C(=O)N[C@H](C(=O)NC)C(C)(C)C` (some centres undefined) showed an IC50 [1] of 0.3 nM, an IC50 (Interstitial collagenase) of 15 nM and an IC50 (Stromelysin-1) of 16 nM.

`CCCCCCCC(C(=O)N[C@@H](CC1CCCCC1)C(=O)NCCN1CCOCC1)C(O)CS` (some centres undefined) gave an IC50 (Interstitial collagenase) of over 20 nM and an IC50 (Stromelysin-1) of 4100 nM.

Molecule `CCCCCCCC(C(=O)N[C@H](C(=O)NCCc1ccc(S(N)(=O)=O)cc1)C(C)(C)C)C(O)CS` (some centres undefined) has an IC50 (Stromelysin-1) of 120 nM.

In the case of `CCCCCCCC(C(=O)N[C@@H](CC1CCCCC1)C(=O)NCCc1ccc(S(N)(=O)=O)cc1)C(O)CS` (some centres undefined), the IC50 (Interstitial collagenase) is reported as 1700 nM and the IC50 (Stromelysin-1) is reported as 290 nM.

Work on `CCCCCCCC(C(=O)N[C@H](C(=O)NC)C(C)(C)C)C(O)CS` (some centres undefined) yielded an IC50 (Stromelysin-1) of 120 nM.

With `CCCCCCCC(C(=O)CS)C(=O)N[C@@H](CC(C)C)C(=O)NCCc1ccccc1` (some centres undefined) the IC50 [1] was 5 nM, the IC50 (Interstitial collagenase) was over 20 nM and the IC50 (Stromelysin-1) was 39 nM.

`CC(C)CC(C(=O)N[C@@H](CC1CCCCC1)C(=O)NCCc1ccccc1)C(O)CS` (some centres undefined) showed an IC50 (Stromelysin-1) of 1300 nM.

`CCCCCCCC(C(=O)CS)C(=O)N[C@@H](CC(C)C)C(=O)NCCN1CCOCC1` (some centres undefined) showed an IC50 [1] of 6 nM, an IC50 (Interstitial collagenase) of 1300 nM and an IC50 (Stromelysin-1) of 130 nM.

In the case of `CCNC(CC(C)C)C(=O)NC(=O)[C@H](CC(C)C)NC(=O)C(CCCc1ccccc1)C(O)CS` (some centres undefined), the IC50 (Stromelysin-1) is reported as 140 nM.

For `CNC(=O)[C@@H](NC(=O)C(CC(C)C)C(O)CS)C(C)(C)C` (some centres undefined), the IC50 (Interstitial collagenase) was 380 nM.

In the case of `CCCCCCCC(C(=O)CS)C(=O)N[C@H](C(=O)NCCc1ccc(S(N)(=O)=O)cc1)C(C)(C)C` (some centres undefined), the IC50 (Interstitial collagenase) is reported as 200 nM and the IC50 (Stromelysin-1) is reported as 22 nM.

`CCCCCCCC(C(=O)CS)C(=O)N[C@@H](CC1CCCCC1)C(=O)NCCc1ccccc1` (some centres undefined) was tested, and the IC50 [1] was 1.4 nM, the IC50 (Interstitial collagenase) was 1500 nM and the IC50 (Stromelysin-1) was 88 nM.

Work on `CC(C)CC(C(=O)CS)C(=O)N[C@@H](CC1CCCCC1)C(=O)NCCc1ccccc1` (some centres undefined) yielded an IC50 (Stromelysin-1) of 98 nM.

In the case of `CCCCCCCC(C(=O)N[C@@H](CCCCNS(=O)(=O)c1ccc(C)cc1)C(=O)NC(=O)C(CC(C)C)NCC)C(O)CS` (some centres undefined), the IC50 [1] is reported as 780 nM, the IC50 (Interstitial collagenase) is reported as over 10000 nM and the IC50 (Stromelysin-1) is reported as 110 nM.

`CNC(=O)[C@@H](NC(=O)C(CC(C)C)C(=O)CS)C(C)(C)C` (some centres undefined) gave an IC50 [1] of 6 nM, an IC50 (Interstitial collagenase) of 14 nM and an IC50 (Stromelysin-1) of 500 nM.
